The source of these data is patent US10477864B2, “Microbiocidal quinoline (thio)carboxamide derivatives” (priority 2016, dated 2019).

The subject of data set [1] is Botryotinia fuckeliana (Botrytis cinerea). Nature of the data set: Botryotinia fuckeliana (Botrytis cinerea) / liquid culture (gray mould). It counts as cell-based. The note with it: 72 h, read-out: control of Botryotinia fuckeliana.
Data set [2] has as its system Fusarium culmorum. Description: microbe, parasite or virus in culture. It counts as cell-based. The note with it: read-out: control of Fusarium culmorum.
For data set [3], the system named is Fusarium culmorum. Description: whole plant or invertebrate. The note with it: in Triticum aestivum, read-out: control of Fusarium culmorum. The data set is classed as in vivo.
In data set [4] the test system is Glomerella lagenarium (Colletotrichum lagenarium). Nature of the data set: Glomerella lagenarium (Colletotrichum lagenarium) / liquid culture (anthracnose). The data set is classed as cell-based. To be noted: Colletotrichum orbiculare; read-out: control of Glomerella lagenarium.

On to `CC(C)CC(C)(Cc1ccccc1)NC(=O)c1cnc2c(C#N)cccc2c1` (stereo not drawn), for which the melting point – broadly, the temperature of the solid-liquid transition – fell in the range of 160 to 162 °C.
Compound `CC(C)(Cc1ccccc1OC(F)(F)F)NC(=O)c1cnc2ccccc2c1` [Compound E-3, N-[1,1-dimethyl-2-[2-(trifluoromethoxy)phenyl]ethyl]quinoline-3-carboxamide] registered a melting point of 145 to 149 °C. Besides, in data set [1], the inhibition of growth at 200 ppm is at least 80%.
On to `CC(C#N)(Cc1ccccc1F)NC(=O)c1cnc2ccccc2c1` (stereo not drawn) [Compound E-4, N-[1-cyano-2-(2-fluorophenyl)-1-methyl-ethyl]quinoline-3-carboxamide], for which the melting point fell in the range of 134 to 139 °C. Moreover, the inhibition of growth at 200 ppm in the data set with Fusarium culmorum [2] is at least 80%.
In turn, `CC(C#N)(Cc1ccccc1Cl)NC(=O)c1cnc2c(F)cccc2c1` (stereo not drawn) [Compound E-18, N-[2-(2-chlorophenyl)-1-cyano-1-methyl-ethyl]-8-fluoro-quinoline-3-carboxamide] registered a melting point of 198 to 203 °C. In data set [1], the inhibition of growth at 200 ppm is at least 80%. The inhibition of growth at 200 ppm in the data set on Fusarium culmorum [2] was at least 80%.
In the case of `COc1ccc2ncc(C(=O)NC(C)(Cc3ccccc3)CC(C)C)cc2c1` (stereo not drawn) [Compound E-63, N-(1-benzyl-1,3-dimethyl-butyl)-6-methoxy-quinoline-3-carboxamide], the melting point was 102 to 105 °C. Also, in data set [1], the inhibition of growth at 200 ppm was at least 80%.
Compound `CC(C)CC(C)(Cc1ccccc1)NC(=O)c1cnc2cccc(Cl)c2c1` (stereo not drawn) [Compound E-64, N-(1-benzyl-1,3-dimethyl-butyl)-5-chloro-quinoline-3-carboxamide] yielded a melting point of 50 to 60 °C. In addition, the inhibition of growth at 200 ppm in data set [1] was at least 80%. In the data set with Fusarium culmorum [2], the inhibition of growth at 200 ppm was at least 80%.
With `CC(C)CC(C)(Cc1ccccc1)NC(=O)c1cnc2cc(C#N)ccc2c1` (stereo not drawn) [Compound E-67, N-(1-benzyl-1,3-dimethyl-butyl)-7-cyano-quinoline-3-carboxamide], the melting point was in the range of 170 to 172 °C. Further, the inhibition of growth at 200 ppm in data set [1] was at least 80%. Moreover, the pest or weed control at 200 ppm with Fusarium culmorum [3] is at least 80%. Also, in the data set with Fusarium culmorum [2], the inhibition of growth at 200 ppm is at least 80%.
For `CC(Cc1ccccc1)(CC(F)(F)F)NC(=O)c1cnc2cccc(Cl)c2c1` (stereo not drawn) [Compound E-68, N-(1-benzyl-3,3,3-trifluoro-1-methyl-propyl)-5-chloro-quinoline-3-carboxamide], the melting point is 85 to 88 °C. Also, the inhibition of growth at 200 ppm in the data set on Fusarium culmorum [2] is at least 80%.
For the compound `CC(Cc1ccccc1)(CC(F)(F)F)NC(=O)c1cnc2cc(C#N)ccc2c1` (stereo not drawn) [Compound E-70, N-(1-benzyl-3,3,3-trifluoro-1-methyl-propyl)-7-cyano-quinoline-3-carboxamide], the melting point was in the range of 172 to 174 °C. In addition, the inhibition of growth at 200 ppm in data set [1] was at least 80%. Further, the pest or weed control at 200 ppm in the data set on Fusarium culmorum [3] is at least 80%. The inhibition of growth at 200 ppm in the data set on Fusarium culmorum [2] is at least 80%.
`Cc1cccc2ncc(C(=O)NC(C)(Cc3ccccc3)CC(C)C)cc12` (stereo not drawn) [Compound E-85, N-(1-benzyl-1,3-dimethyl-butyl)-5-methyl-quinoline-3-carboxamide] showed a melting point of 79 to 81 °C. Besides, the inhibition of growth at 200 ppm in data set [1] was at least 80%. Further, the pest or weed control at 200 ppm in the data set on Fusarium culmorum [3] is at least 80%. The inhibition of growth at 200 ppm with Fusarium culmorum [2] is at least 80%.
Turning to `Cc1cccc2ncc(C(=O)NC(C)(Cc3ccccc3)CC(F)(F)F)cc12` (stereo not drawn) [Compound E-86, N-(1-benzyl-3,3,3-trifluoro-1-methyl-propyl)-5-methyl-quinoline-3-carboxamide], the melting point lay in the range of 101 to 103 °C. For the same compound, the inhibition of growth at 200 ppm in data set [1] is at least 80%. In addition, the pest or weed control at 200 ppm in the data set on Fusarium culmorum [3] is at least 80%. Besides, in data set [4], the inhibition of growth at 200 ppm is at least 80%. Further, in the data set with Fusarium culmorum [2], the inhibition of growth at 200 ppm was at least 80%.
`CC(C)CC(C)(Cc1ccccc1)NC(=O)c1cnc2cccc(O)c2c1` (stereo not drawn) [Compound E-87, N-(1-benzyl-1,3-dimethyl-butyl)-5-hydroxy-quinoline-3-carboxamide] yielded a melting point of 90 to 95 °C. In data set [1], the inhibition of growth at 200 ppm was at least 80%. Moreover, the inhibition of growth at 200 ppm in data set [4] is at least 80%. For the same compound, the inhibition of growth at 200 ppm in the data set on Fusarium culmorum [2] was at least 80%.
With `Cc1c(C(=O)NC(C)(Cc2ccccc2)CC(F)(F)F)cnc2c(C#N)cccc12` (stereo not drawn) [Compound E-105, N-(1-benzyl-3,3,3-trifluoro-1-methyl-propyl)-8-cyano-4-methyl-quinoline-3-carboxamide], the melting point was 194 to 197 °C. For the same compound, the pest or weed control at 200 ppm with Fusarium culmorum [3] was at least 80%. For the same compound, in the data set on Fusarium culmorum [2], the inhibition of growth at 200 ppm is at least 80%.
On to `Cc1c(C(=O)NC(C)(Cc2ccccc2)CC(C)C)cnc2c(Cl)cccc12` (stereo not drawn) [Compound E-107, N-(1-benzyl-1,3-dimethyl-butyl)-8-chloro-4-methyl-quinoline-3-carboxamide], for which the melting point lay within 65 to 70 °C. Also, the inhibition of growth at 200 ppm in data set [1] was at least 80%. The pest or weed control at 200 ppm in the data set with Fusarium culmorum [3] was at least 80%. The inhibition of growth at 200 ppm with Fusarium culmorum [2] was at least 80%.
For `Cc1nc2c(Cl)cccc2cc1C(=O)NC(C)(Cc1ccccc1)CC(F)(F)F` (stereo not drawn) [Compound E-110, N-(1-benzyl-3,3,3-trifluoro-1-methyl-propyl)-8-chloro-2-methyl-quinoline-3-carboxamide], the melting point is 176 to 179 °C. For the same compound, the inhibition of growth at 200 ppm in data set [1] was at least 80%. In addition, the inhibition of growth at 200 ppm with Fusarium culmorum [2] was at least 80%.
For the compound `CC(Cc1ccccc1)(CC1CCC1)NC(=O)c1cnc2ccccc2c1` (stereo not drawn) [Compound E-111, N-(1-benzyl-2-cyclobutyl-1-methyl-ethyl)quinoline-3-carboxamide], the melting point was in the range of 88 to 90 °C. For the same compound, in data set [1], the inhibition of growth at 200 ppm is at least 80%. In data set [4], the inhibition of growth at 200 ppm is at least 80%. In the data set on Fusarium culmorum [2], the inhibition of growth at 200 ppm was at least 80%.
`CC(Cc1ccccc1)(CC(F)(F)F)NC(=S)c1cnc2c(F)cccc2c1` (stereo not drawn) [Compound E-115, N-(1-benzyl-3,3,3-trifluoro-1-methyl-propyl)-8-fluoro-quinoline-3-carbothioamide] registered a melting point of 173 to 175 °C. The inhibition of growth at 200 ppm in data set [1] is at least 80%. The inhibition of growth at 200 ppm in data set [4] is at least 80%. Also, in the data set on Fusarium culmorum [2], the inhibition of growth at 200 ppm was at least 80%.
As to `CC(C)C[C@](C)(Cc1ccccc1)NC(=O)c1cnc2cc(F)ccc2c1` [Compound F-13, N-[(1R)-1-benzyl-1,3-dimethyl-butyl]-7-fluoro-quinoline-3-carboxamide], the inhibition of growth at 200 ppm (in data set [1]; in data set [4]; in the data set on Fusarium culmorum [2]) was at least 80% throughout. The pest or weed control at 200 ppm with Fusarium culmorum [3] is at least 80%.
On to `CC(C)C[C@@](C)(Cc1ccccc1)NC(=O)c1cnc2cc(F)ccc2c1` [Compound F-14, N-[(1S)-1-benzyl-1,3-dimethyl-butyl]-7-fluoro-quinoline-3-carboxamide], for which the inhibition of growth at 200 ppm (in data set [1]; in data set [4]; in the data set with Fusarium culmorum [2]) was at least 80% throughout. In addition, the pest or weed control at 200 ppm with Fusarium culmorum [3] was at least 80%.
On to `C=C(C)C[C@@](C)(Cc1ccccc1)NC(=O)c1cnc2c(F)c(F)ccc2c1` [Compound F-19, N-[(1S)-1-benzyl-1,3-dimethyl-but-3-enyl]-7,8-difluoro-quinoline-3-carboxamide], for which the inhibition of growth at 200 ppm (in data set [1]; in data set [4]; in the data set with Fusarium culmorum [2]) was at least 80% throughout. Besides, the pest or weed control at 200 ppm in the data set on Fusarium culmorum [3] was at least 80%.
As to `CC(C)C[C@](C)(Cc1ccccc1)NC(=O)c1cnc2c(F)c(F)ccc2c1` [Compound F-21, N-[(1R)-1-benzyl-1,3-dimethyl-butyl]-7,8-difluoro-quinoline-3-carboxamide], the inhibition of growth at 200 ppm (in data set [1]; in data set [4]; in the data set on Fusarium culmorum [2]) was at least 80% throughout. Further, the pest or weed control at 200 ppm in the data set with Fusarium culmorum [3] is at least 80%.
Take `Cc1cccc2cc(C(=O)N[C@](C)(Cc3ccccc3)CC(F)(F)F)cnc12` [Compound F-28, N-[(1R)-1-benzyl-3,3,3-trifluoro-1-methyl-propyl]-8-methyl-quinoline-3-carboxamide]: the inhibition of growth at 200 ppm (in data set [1]; in data set [4]; in the data set with Fusarium culmorum [2]) was at least 80% in each case. Besides, the pest or weed control at 200 ppm with Fusarium culmorum [3] was at least 80%.
As for `C[C@@](Cc1ccccc1)(CC(F)F)NC(=O)c1cnc2c(F)cccc2c1` [Compound F-31, N-[(1R)-1-benzyl-3,3-difluoro-1-methyl-propyl]-8-fluoro-quinoline-3-carboxamide], the inhibition of growth at 200 ppm (in data set [1]; in data set [4]; in the data set with Fusarium culmorum [2]) was at least 80% in each case. The pest or weed control at 200 ppm in the data set on Fusarium culmorum [3] is at least 80%.
Take `Cc1nc2c(F)cccc2cc1C(=O)N[C@@](C)(Cc1ccccc1)CC(F)(F)F` [Compound F-33, N-[(1S)-1-benzyl-3,3,3-trifluoro-1-methyl-propyl]-8-fluoro-2-methyl-quinoline-3-carboxamide]: the inhibition of growth at 200 ppm (in data set [1]; in data set [4]; in the data set with Fusarium culmorum [2]) was at least 80% in each case. Also, in the data set with Fusarium culmorum [3], the pest or weed control at 200 ppm was at least 80%.
On to `C[C@](Cc1ccccc1)(CC(F)(F)F)NC(=O)c1cnc2c(Cl)cccc2c1` [Compound F-35, N-[(1S)-1-benzyl-3,3,3-trifluoro-1-methyl-propyl]-8-chloro-quinoline-3-carboxamide], for which the inhibition of growth at 200 ppm (in data set [1]; in data set [4]; in the data set on Fusarium culmorum [2]) was at least 80% in each case. In the data set on Fusarium culmorum [3], the pest or weed control at 200 ppm is at least 80%.
In the case of `C[C@@](Cc1ccccc1)(CC(F)(F)F)NC(=O)c1cnc2c(Cl)cccc2c1` [Compound F-36, N-[(1R)-1-benzyl-3,3,3-trifluoro-1-methyl-propyl]-8-chloro-quinoline-3-carboxamide], the inhibition of growth at 200 ppm (in data set [1]; in data set [4]; with Fusarium culmorum [2]) was at least 80% in each case. In the data set on Fusarium culmorum [3], the pest or weed control at 200 ppm was at least 80%.
